# In patent US7309710B2, “Crystals” (Astellas Pharma Inc., priority 2002, dated 2007):
# Tests used:
# [1] = Stability test of the crystals (assay value by HPLC, internal standard method); assay type: physicochemical; settings: for Stability test: assay value by HPLC (internal standard method, peak area): 40° C. under light-resistant; for Stability of the crystal: at 5 to 60° C. for at least three months
# Method: Because both the α type and β type crystals are stable at 5 to 60° C. for at least three months and can be highly purified by recrystallization, these crystals may be used as raw materials for producing pharmaceutical products. Particularly, these crystals are preferable as raw materials for producing solid pharmaceutical preparations.
# (The values express the assay values determined by an internal standard method on the basis of peak area obtained by HPLC)
# [2] = system: Ca2+ release-activated Ca2+ channel (CRACC); test: CRACC inhibitory activity (in vitro test as described in patent reference 1); assay type: cell-based
# From the text: (§1) 4,6-Diemthyl-4′-[3,5-bis(trifluoromethyl)-1H-pyrazol-1-yl]nicotinanilide is excellent in terms of the CRACC inhibitory activity, the inhibition selectivity over VOCC, and the activity of suppressing IL-2 production. […] Therefore, a pharmaceutical product containing the compound is useful as an agent for preventing or treating allergic, inflammatory or autoimmune diseases in which CRACC and IL-2 participates. Herein, the allergic, inflammatory or autoimmune diseases include, for example, bronchial asthma, psoriasis, atopic diseases including atopic dermatitis, inflammatory bowel diseases including Crohn disease, digestive ulcer, nephritis, hepatitis, pancreatitis, collagenosis, rheumatoid arthritis, osteoarthritis, and rejection on transplantation. The usefulness on these diseases can be confirmed at the in vitro tests of the CRACC inhibitory activity and the activity of suppressing IL-2 production as described in the patent reference 1 and at various tests using, for example, antigen-induced airway eosinophilia model as a typical disease model of bronchial asthma, and murine collagen-induced arthritis model. 4,6-Dimethyl-4′-[3,5-bis (trifluoromethyl)-1H-pyrazol-1-yl]nicotinanilide may be produced by the method described in the patent reference 1.
# [3] = system: voltage-operated Ca2+ channel (VOCC); test: Inhibition selectivity for CRACC over VOCC; assay type: cell-based
# From the text: A pyrazole derivative having a high inhibition selectivity for CRACC over voltage-operated Ca^2+ channel (abbreviated as VOCC hereinafter) involved in intracellular calcium regulation of excitatory cells such as smooth muscle cells and nerve cells and having an inhibitory activity against IL-2 production has been reported (for example, patent reference 1).
# 4,6-Diemthyl-4′-[3,5-bis(trifluoromethyl)-1H-pyrazol-1-yl]nicotinanilide is excellent in terms of the CRACC inhibitory activity, the inhibition selectivity over VOCC, and the activity of suppressing IL-2 production. […] Therefore, a pharmaceutical product containing the compound is useful as an agent for preventing or treating allergic, inflammatory or autoimmune diseases in which CRACC and IL-2 participates. Herein, the allergic, inflammatory or autoimmune diseases include, for example, bronchial asthma, psoriasis, atopic diseases including atopic dermatitis, inflammatory bowel diseases including Crohn disease, digestive ulcer, nephritis, hepatitis, pancreatitis, collagenosis, rheumatoid arthritis, osteoarthritis, and rejection on transplantation. […]
# [4] = system: IL-2 production; test: Activity of suppressing IL-2 production; assay type: cell-based
# From the text: as §1
# [5] = system: TNCB-induced Contact Hypersensitivity; test: Suppression of TNCB-induced Contact Hypersensitivity; assay type: in vivo; settings: test described in patent reference 1
# From the text: as §1
# [6] = system: collagen-induced arthritis; test: Murine collagen-induced arthritis model; assay type: in vivo; settings: test described in patent reference 1
# From the text: as §1
# [7] = system: antigen-induced airway eosinophilia; test: Antigen-induced airway eosinophilia (rat); assay type: in vivo; settings: test described in patent reference 1
# From the text: as §1
Structure (SMILES),"Stability test: assay value by HPLC (internal standard method, peak area) ([1]; After 1 month) [%]","Stability test: assay value by HPLC (internal standard method, peak area) ([1]; After 3 months) [%]",Stability of the crystal [1],CRACC inhibitory activity [2],inhibition selectivity over VOCC [3],activity of suppressing IL-2 production [4],effect on the suppression of TNCB-induced Contact Hypersensitivity [5],activity of suppressing the arthritis in murine collagen-induced arthritis model [6],activity of suppressing of antigen-induced airway eosinophilia [7]
"Cc1cc(C)c(C(=O)Nc2ccc(-n3nc(C(F)(F)F)cc3C(F)(F)F)cc2)cn1 [β type crystal, 4,6-dimethyl-4′-[3,5-bis(trifluoromethyl)-1H-pyrazol-1-yl]nicotinanilide]",99.7,100.7,stable,,,,,,
"Cc1cc(C)c(C(=O)Nc2ccc(-n3nc(C(F)(F)F)cc3C(F)(F)F)cc2)cn1 [4,6-dimethyl-4′-[3,5-bis(trifluoromethyl)-1H-pyrazol-1-yl]nicotinanilide]",,,,excellent,excellent,excellent,very good activities,very good activities,very good activities
"Cc1cc(C)c(C(=O)Nc2ccc(-n3nc(C(F)(F)F)cc3C(F)(F)F)cc2)cn1 [α type crystal, 4,6-dimethyl-4′-[3,5-bis(trifluoromethyl)-1H-pyrazol-1-yl]nicotinanilide]",100.7,99.2,stable,,,,,,
